Results as given in patent US11524968B2, “Heterocyclic compound as a protein kinase inhibitor” (HK inno.N Corporation, priority 2017, dated 2022).
pIC50: −log10 of the molar value.

Molecular target: JAK1 (Homo sapiens (Human), UniProt P23458)
Test: Analysis of JAK1 activity inhibition ability (ADP-Glo Kinase Assay)
Type: biochemical
Details: JAK1 enzyme, ADP-Glo luminescence, ATP 250 uM, IRS-itide substrate, 30° C. 40 minutes; read-out: IC50
Summary of the method: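 JAK1 enzyme, IRS-itide substrate (40 ng/mL) and 250 uM ATP, both as prepared in kinase buffer (Tris-HCl pH 7.5, MgCl2, BSA, DTT), reacted with compound 40 min at 30 °C. ADP formed was detected by ADP-Glo luminescence; IC50 is the concentration giving 50% inhibition versus control.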

Chain of JAK1 (P23458 whole entry): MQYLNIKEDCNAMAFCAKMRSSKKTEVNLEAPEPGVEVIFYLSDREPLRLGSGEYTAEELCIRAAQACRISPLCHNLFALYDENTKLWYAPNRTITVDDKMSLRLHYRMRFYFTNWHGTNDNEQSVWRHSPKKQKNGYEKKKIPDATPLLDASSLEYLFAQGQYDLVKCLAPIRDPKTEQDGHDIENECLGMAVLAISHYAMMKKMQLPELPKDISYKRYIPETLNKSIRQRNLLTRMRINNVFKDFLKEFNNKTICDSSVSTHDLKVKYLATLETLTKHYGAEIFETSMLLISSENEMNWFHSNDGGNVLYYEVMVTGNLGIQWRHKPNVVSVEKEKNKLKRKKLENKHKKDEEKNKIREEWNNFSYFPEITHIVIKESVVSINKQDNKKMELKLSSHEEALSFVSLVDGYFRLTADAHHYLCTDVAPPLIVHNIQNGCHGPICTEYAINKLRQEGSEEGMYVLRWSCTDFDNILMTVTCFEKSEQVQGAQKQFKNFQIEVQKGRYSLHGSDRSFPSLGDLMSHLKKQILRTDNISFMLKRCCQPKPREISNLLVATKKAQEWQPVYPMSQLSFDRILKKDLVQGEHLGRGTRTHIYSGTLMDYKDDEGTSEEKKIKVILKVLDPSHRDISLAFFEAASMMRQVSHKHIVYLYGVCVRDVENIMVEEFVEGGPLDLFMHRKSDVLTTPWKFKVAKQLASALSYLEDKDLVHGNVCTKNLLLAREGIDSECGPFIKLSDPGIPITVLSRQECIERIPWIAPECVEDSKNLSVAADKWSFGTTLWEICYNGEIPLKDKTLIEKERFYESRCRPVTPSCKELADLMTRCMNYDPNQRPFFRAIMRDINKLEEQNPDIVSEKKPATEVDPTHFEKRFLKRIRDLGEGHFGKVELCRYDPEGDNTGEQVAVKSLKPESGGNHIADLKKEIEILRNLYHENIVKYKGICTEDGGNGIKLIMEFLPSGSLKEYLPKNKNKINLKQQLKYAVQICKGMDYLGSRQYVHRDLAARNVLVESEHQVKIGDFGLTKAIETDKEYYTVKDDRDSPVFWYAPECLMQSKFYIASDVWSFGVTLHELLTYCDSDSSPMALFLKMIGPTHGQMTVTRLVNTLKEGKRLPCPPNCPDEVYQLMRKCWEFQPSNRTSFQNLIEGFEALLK

Compound `O=C(Nc1cc(-c2ccc(CC(=O)N3CCC(F)(F)CC3)cc2)c2cc[nH]c2n1)C1CC1` [Example 561, N-(4-(4-(2-(4,4-difluoropiperidin-1-yl)-2-oxoethyl)phenyl)-1H-pyrrolo[2,3-b]pyridin-6-yl)cyclopropanecarboxamide] has a pIC50 of 6.70 to 7.70.
Compound `N#CCCC(=O)N1CC=C(c2cc(NC(=O)C3CC3)nc3[nH]ccc23)C2(CC2)C1` [Example 302, N-(4-(5-(3-cyanopropanoyl)-5-azaspiro[2.5]oct-7-en-8-yl)-1H-pyrrolo[2,3-b]pyridin-6-yl)cyclopropanecarboxamide] has a pIC50 of 6.70 to 7.70.
Work on `CC1CN(C(=O)c2cccc(Br)c2)CC=C1c1cc(NC(=O)C2CC2)nc2[nH]ccc12` (centres unmarked) [Example 334, N-(4-(1-(3-bromobenzoyl)-3-methyl-1,2,3,6-tetrahydropyridin-4-yl)-1H-pyrrolo[2,3-b]pyridin-6-yl)cyclopropanecarboxamide] yielded a pIC50 of 6.70 to 7.70.
In the case of `O=C(Nc1cc(C2=CCN(C(=O)c3ccc(F)cc3)CC2)c2cc[nH]c2n1)C1CC1` [Example 279, N-(4-(1-(4-fluorobenzoyl)-1,2,3,6-tetrahydropyridin-4-yl)-1H-pyrrolo[2,3-b]pyridin-6-yl)cyclopropanecarboxamide], the pIC50 was 6.70 to 7.70.
Compound `COc1ccc(C(=O)N2CC=C(c3cc(NC(=O)C4CC4)nc4[nH]ccc34)C(C)C2)cc1OC` (centres unmarked) [Example 329, N-(4-(1-(3,4-dimethoxybenzoyl)-3-methyl-1,2,3,6-tetrahydropyridin-4-yl)-1H-pyrrolo[2,3-b]pyridin-6-yl)cyclopropanecarboxamide] has a pIC50 of 6.70 to 7.70.
`O=C(Nc1cc(-c2ccc(NS(=O)(=O)c3ccc4c(c3)OCO4)cc2)c2cc[nH]c2n1)C1CC1` [Example 34, N-(4-(4-(benzo[d][1,3]dioxole-5-sulfonamido)phenyl)-1H-pyrrolo[2,3-b]pyridin-6-yl)cyclopropanecarboxamide] gave a pIC50 of over 7.70.
`N#CC1COCCN1C(=O)Cc1ccc(-c2cc(NC(=O)C3CC3)nc3[nH]ccc23)cc1` (centres unmarked) [Example 576, N-(4-(4-(2-(3-cyanomorpholino)-2-oxoethyl)phenyl)-1H-pyrrolo[2,3-b]pyridin-6-yl)cyclopropanecarboxamide] was tested, and the pIC50 was 6.70 to 7.70.
`C[C@@H]1CN(C(=O)CC2(C#N)CCCCC2)CC=C1c1cc(NC(=O)C2CC2)nc2[nH]ccc12` [Example 406, (S)—N-(4-(1-(2-(1-cyanocyclohexyl)acetyl)-3-methyl-1,2,3,6-tetrahydropyridin-4-yl)-1H-pyrrolo[2,3-b]pyridin-6-yl)cyclopropanecarboxamide] showed a pIC50 of over 7.70.
With `N#CCC(=O)N1C=C(c2cc(NC(=O)C3CC3)nc3[nH]ccc23)CCC1` [Example 419, N-(4-(1-(2-cyanoacetyl)-1,4,5,6-tetrahydropyridin-3-yl)-1H-pyrrolo[2,3-b]pyridin-6-yl)cyclopropanecarboxamide] the pIC50 was under 6.70.
`O=C(Nc1cc(-c2ccc(OS(=O)(=O)CC3CCCCC3)cc2)c2cc[nH]c2n1)C1CC1` [Example 637, 4-(6-(cyclopropanecarboxamido)-1H-pyrrolo[2,3-b]pyridin-4-yl)phenyl cyclohexylmethanesulfonate] showed a pIC50 of under 6.70.
`O=C(Nc1cc(-c2ccc(NS(=O)(=O)C3CCS(=O)(=O)C3)cc2)c2cc[nH]c2n1)C1CC1` (centres unmarked) [Example 10, N-(4-(4-((1,1-dioxidotetrahydrothiophene)-3-sulfonamido)phenyl)-1H-pyrrolo[2,3-b]pyridin-6-yl)cyclopropanecarboxamide] was tested, and the pIC50 was over 7.70.
Compound `CCNC(=S)Nc1ccc(-c2nc(NC(=O)C3CC3)nc3[nH]ccc23)cc1` [Example 466, N-(4-(4-(3-ethylthioureido)phenyl)-7H-pyrrolo[2,3-d]pyrimidin-2-yl)cyclopropanecarboxamide] has a pIC50 of 6.70 to 7.70.
For `CC(C)S(=O)(=O)N1CC(CC#N)(N2CC=C(c3cc(NC(=O)C4CC4)nc4[nH]ccc34)CC2)C1` [Example 617, N-(4-(1-(3-(cyanomethyl)-1-(isopropylsulfonyl)azetidin-3-yl)-1,2,3,6-tetrahydropyridin-4-yl)-1H-pyrrolo[2,3-b]pyridin-6-yl)cyclopropanecarboxamide], the pIC50 was over 7.70.
In the case of `CCCS(=O)(=O)N1CC=C(c2cc(NC(=O)C3CC3)nc3[nH]ccc23)C1` [Example 212, N-(4-(1-(propylsulfonyl)-2,5-dihydro-1H-pyrrol-3-yl)-1H-pyrrolo[2,3-b]pyridin-6-yl)cyclopropanecarboxamide], the pIC50 was under 6.70.
With `CC1(C)CN(C(=O)CC#N)CC=C1c1cc(NC(=O)C2CC2)nc2[nH]ccc12` [Example 299, N-(4-(1-(2-cyanoacetyl)-3,3-dimethyl-1,2,3,6-tetrahydropyridin-4-yl)-1H-pyrrolo[2,3-b]pyridin-6-yl)cyclopropanecarboxamide] the pIC50 was 6.70 to 7.70.
`N#CCC(=O)N1CCC(N2CC(CC#N)(N3CC=C(c4cc(NC(=O)C5CC5)nc5[nH]ccc45)CC3)C2)CC1` [Example 622, N-(4-(1-(1-(1-(2-cyanoacetyl)piperidin-4-yl)-3-(cyanomethyl)azetidin-3-yl)-1,2,3,6-tetrahydropyridin-4-yl)-1H-pyrrolo[2,3-b]pyridin-6-yl)cyclopropanecarboxamide] gave a pIC50 of 6.70 to 7.70.
`CCNC(=S)N1CCC(c2cc(NC(=O)C3CC3)nc3[nH]ccc23)CC1` [Example 658, N-(4-(1-(ethylcarbamothioyl)piperidin-4-yl)-1H-pyrrolo[2,3-b]pyridin-6-yl)cyclopropanecarboxamide] was tested, and the pIC50 was under 6.70.
`Cn1cc(S(=O)(=O)Nc2ccc(-c3nc(NC(=O)C4CC4)nc4[nH]ccc34)cc2)cn1` [Example 199, N-(4-(4-((1-methyl-1H-pyrazole)-4-sulfonamido)phenyl)-7H-pyrrolo[2,3-d]pyrimidin-2-yl)cyclopropanecarboxamide] was tested, and the pIC50 was under 6.70.
For `C[C@@H]1CN(C(=O)C2(C#N)CCOCC2)CC=C1c1cc(NC(=O)C2CC2)nc2[nH]ccc12` [Example 407, (S)—N-(4-(1-(4-cyanotetrahydro-2H-pyran-4-carbonyl)-3-methyl-1,2,3,6-tetrahydropyridin-4-yl)-1H-pyrrolo[2,3-b]pyridin-6-yl)cyclopropanecarboxamide], the pIC50 was 6.70 to 7.70.
Compound `CN(C)S(=O)(=O)c1ccc(S(=O)(=O)Nc2ccc(-c3cc(NC(=O)C4CC4)nc4[nH]ccc34)cc2)cc1` [Example 37, N-(4-(4-((4-(N,N-dimethylsulfamoyl)phenyl)sulfonamido)phenyl)-1H-pyrrolo[2,3-b]pyridin-6-yl)cyclopropanecarboxamide] has a pIC50 of 6.70 to 7.70.
With `CC1CC(c2cc(NC(=O)C3CC3)nc3[nH]ccc23)=CCN1C(=O)CC#N` (centres unmarked) [Example 363, N-(4-(1-(2-cyanoacetyl)-2-methyl-1,2,3,6-tetrahydropyridin-4-yl)-1H-pyrrolo[2,3-b]pyridin-6-yl)cyclopropanecarboxamide] the pIC50 was over 7.70.
`O=C(Nc1cc(-c2ccc(NS(=O)(=O)C(F)F)cc2)c2cc[nH]c2n1)C1CC1` [Example 50, N-(4-(4-((difluoromethyl)sulfonamido)phenyl)-1H-pyrrolo[2,3-b]pyridin-6-yl)cyclopropanecarboxamide] gave a pIC50 of 6.70 to 7.70.
In the case of `CSc1ccc(S(=O)(=O)Nc2ccc(-c3cc(NC(=O)C4CC4)nc4[nH]ccc34)cc2)cc1` [Example 28, N-(4-(4-((4-(methylthio)phenyl)sulfonamido)phenyl)-1H-pyrrolo[2,3-b]pyridin-6-yl)cyclopropanecarboxamide], the pIC50 was 6.70 to 7.70.
For `N#CCC(=O)N1CC(n2cc(-c3cc(NC(=O)C4CC4)nc4[nH]ccc34)cn2)C1` [Example 610, N-(4-(1-(1-(2-cyanoacetyl)azetidin-3-yl)-1H-pyrazol-4-yl)-1H-pyrrolo[2,3-b]pyridin-6-yl)cyclopropanecarboxamide], the pIC50 was 6.70 to 7.70.
Work on `O=C(Nc1cc(-c2cc(F)c(CN3CCOCC3)c(F)c2)c2cc[nH]c2n1)C1CC1` [Example 590, N-(4-(3,5-difluoro-4-(morpholinomethyl)phenyl)-1H-pyrrolo[2,3-b]pyridin-6-yl)cyclopropanecarboxamide] yielded a pIC50 of over 7.70.
With `O=C(Nc1cc(C2=CCC(NS(=O)(=O)C(F)(F)F)CC2)c2cc[nH]c2n1)C1CC1` (centres unmarked) [Example 153, N-(4-(4-((trifluoromethyl)sulfonamido)cyclohex-1-en-1-yl)-1H-pyrrolo[2,3-b]pyridin-6-yl)cyclopropanecarboxamide] the pIC50 was 6.70 to 7.70.
Compound `O=C(Nc1cc(C2=CCN(C(=O)c3ccncc3)CC2)c2cc[nH]c2n1)C1CC1` [Example 277, N-(4-(1-isonicotinoyl-1,2,3,6-tetrahydropyridin-4-yl)-1H-pyrrolo[2,3-b]pyridin-6-yl)cyclopropanecarboxamide] has a pIC50 of under 6.70.
`Cc1cnc(C(=O)N2CC=C(c3cc(NC(=O)C4CC4)nc4[nH]ccc34)C(C)C2)cn1` (centres unmarked) [Example 344, N-(4-(3-methyl-1-(5-methylpyrazine-2-carbonyl)-1,2,3,6-tetrahydropyridin-4-yl)-1H-pyrrolo[2,3-b]pyridin-6-yl)cyclopropanecarboxamide] gave a pIC50 of under 6.70.
`N#CC1CCN(C(=O)Cc2ccc(-c3cc(NC(=O)C4CC4)nc4[nH]ccc34)cc2)CC1` [Example 548, N-(4-(4-(2-(4-cyanopiperidin-1-yl)-2-oxoethyl)phenyl)-1H-pyrrolo[2,3-b]pyridin-6-yl)cyclopropanecarboxamide] showed a pIC50 of 6.70 to 7.70.
`CC1CN(C(=O)CC#N)CC=C1c1cc(NC(=O)C2CC2)nc2[nH]ccc12` (centres unmarked) [Example 283, N-(4-(1-(2-cyanoacetyl)-3-methyl-1,2,3,6-tetrahydropyridin-4-yl)-1H-pyrrolo[2,3-b]pyridin-6-yl)cyclopropanecarboxamide] gave a pIC50 of over 7.70.
With `O=C(Nc1cc(C2=CCN(C(=O)c3cnoc3)CC2)c2cc[nH]c2n1)C1CC1` [Example 287, N-(4-(1-(isoxazole-4-carbonyl)-1,2,3,6-tetrahydropyridin-4-yl)-1H-pyrrolo[2,3-b]pyridin-6-yl)cyclopropanecarboxamide] the pIC50 was 6.70 to 7.70.
`O=C(Nc1cc(-c2ccc(C3(C(=O)N4CCS(=O)(=O)CC4)CC3)cc2)c2cc[nH]c2n1)C1CC1` [Example 577, N-(4-(4-(1-(1,1-dioxidothiomorpholine-4-carbonyl)cyclopropyl)phenyl)-1H-pyrrolo[2,3-b]pyridin-6-yl)cyclopropanecarboxamide] showed a pIC50 of 6.70 to 7.70.
